Measured values from US20250114448A1, “SAPONIN-BASED ADJUVANTS AND VACCINES” (ASOCIACIÓN CENTRO DE INVESTIGACIÓN COOPERATIVA EN …, priority 2022, published 2025).

Experiments:
Set-up in all cases: species or system mice (C57BL/6)
[1] = tested on: anti-MUC1 IgG antibodies; experiment: Self-adjuvanting vaccine: anti-MUC1 total IgG (ELISA, BSA-MUC1 coated plates) in sera of immunized mice (In Vivo Experiment 2); conditions: C57BL/6 mice, subcutaneous, days 0, 11, 21, dose equimolar to 50 μg of MUC1 per injection, no external adjuvant, endpoint sera day 28, versus pre-sera
Procedure: (§1) Concerning the saponin-antigen conjugates, groups of five mice (C57BL/6, female, 6-8 weeks old) were vaccinated subcutaneously three times every […] (days 0, 11, and 21) with the glycoconjugate constructs (50 μg/mouse) in phosphate-buffered saline (PBS, 100 μl). To determine the antibody responses over time, mice were bled via submandibular vein at the indicated post-vaccination time point (day 18), and by cardiac puncture at the experimental endpoint (day 28). Blood was collected in BD Microtainer® tubes (Clot Activator/SST™ Gel) and centrifuged at 13000 g for 10 min. Sera were harvested and stored at −20° C. until further analysis.
(§2) Quantification of antibody production. Antibody titers against OVA protein for the saponin adjuvants, or against MUC1 and TnMUC1 antigens in the case of the conjugate constructs were measured by an indirect enzyme-linked immunosorbent assay (ELISA). Briefly, ELISA plates (Thermo Scientific) were coated with endotoxin-free OVA (EndoFit™ Ovalbumin; Invitrogen) or with BSA-MUC1 or BSA-TnMUC1 conjugates at 0.05 μg/well in carbonate buffer (pH 9.5), and plates were incubated overnight at 4° C. After washing the wells (PBS, 10 mM, containing 0.05% Tween 20), plates were blocked with 10% of fetal calf serum (FCS, Biowest) in PBS buffer for 1 h. […] Absorbance (OD, 450 nm) was immediately measured using a BioTek® Synergy HT multi-detection microplate reader. […]

[2] = tested on: anti-OVA IgG antibodies; experiment: Adjuvant activity: anti-OVA total IgG (ELISA) in sera of mice vaccinated with OVA plus saponin (In Vivo Experiment 1); conditions: C75BL6 mice, three subcutaneous injections 10 days apart, OVA 10 μg + saponin 50 μg, endpoint sera day 28, total IgG ELISA
Procedure: Vaccination of mice. In the case of the synthetic saponin adjuvants, groups of five mice (C57BL/6, female, 6-8 weeks old) were vaccinated subcutaneously three times every 10 days (days 0, 11, and 21) with endotoxin-free OVA (EndoFit™ Ovalbumin, Invitrogen) (10 μg/mouse) in phosphate-buffered saline (PBS, 100 μL) either alone (no-adjuvant control group) or with the synthetic saponins (50 μg/mouse). To analyze the antibody responses over time, mice were bled via the submandibular vein at the indicated pre-(day −1) and post-vaccination time points (days 18), and by cardiac puncture at the experimental endpoint (day 28). Blood was collected in BD Microtainer® tubes (Clot Activator/SST™ Gel) and centrifuged at 7500 g for 10 min, after which serum was harvested and stored at −20° C. until further analysis.
Quantification of antibody production. Antibody titers against OVA protein for the saponin adjuvants, or against MUC1 and TnMUC1 antigens in the case of the conjugate constructs were measured by an indirect enzyme-linked immunosorbent assay (ELISA). Briefly, ELISA plates (Thermo Scientific) were coated with endotoxin-free OVA (EndoFit™ Ovalbumin; Invitrogen) or with BSA-MUC1 or BSA-TnMUC1 conjugates at 0.05 μg/well in carbonate buffer (pH 9.5), and plates were incubated overnight at 4° C. After washing the wells (PBS, 10 mM, containing 0.05% Tween 20), plates were blocked with 10% of fetal calf serum (FCS, Biowest) in PBS buffer for 1 h. Serial dilutions of mouse sera in blocking buffer (10% FCS in PBS buffer) were added to the wells with appropriate controls and incubated for 1 h at room temperature. After washing, goat anti-mouse total IgG (Jackson ImmunoResearch) or subclass specific IgG1, IgG2b, IgG2c and IgG3 (SouthernBiotech) antibodies conjugated to horseradish peroxidase (HRP) were added to each well at the dilution indicated by the manufacturer. After 1 h incubation at room temperature, KPL SureBlue Reserve™ commercial solution (100 μL/well, SeraCare) containing 3,3′,5,5′-tetramethylbenzidine (TMB) was added as peroxidase substrate and after incubation for 10 min, the reaction was stopped with 2 N H2SO4 (100 μL/well). Absorbance (OD, 450 nm) was immediately measured using a BioTek® Synergy HT multi-detection microplate reader.
A straightforward proof-of-principle in vivo experiment was carried out to directly compare their adjuvant activities of prior art compound 12 and the compounds of the invention 1 and 2 in terms of IgG antibody production, using chicken ovalbumin (OVA) as a model antigen. […] Endpoint sera after three immunizations were probed via ELISA assays by coating 96-well plates with OVA (0.05 μg/ml) and total IgG optical density (OD) values (at day 28) were measured (FIG. 1).

[3] = tested on: anti-TnMUC1 IgG antibodies; experiment: Self-adjuvanting vaccine: anti-TnMUC1 total IgG (ELISA, BSA-TnMUC1 coated plates) in sera of immunized mice (In Vivo Experiment 2); conditions: C57BL/6 mice, subcutaneous, days 0, 11, 21, dose equimolar to 50 μg of MUC1 per injection, no external adjuvant, endpoint sera day 28, versus pre-sera
Procedure: as §1, §2

| Compound | production of total anti-MUC1 IgG antibodies [1] | anti-OVA IgG antibody response versus negative control group (OVA alone) [2] | anti-OVA IgG titers compared to those induced by previous EA lead saponin 12 (C3-hydroxyl) [2] | production of total anti-TnMUC1 IgG antibodies [3] |
| --- | --- | --- | --- | --- |
| CC[C@H](C)C(NC(=O)[C@H](CCCCN)NC(=O)[C@H](Cc1c[nH]c2ccccc12)NC(=O)[C@@H](NC(=O)[C@H](C)NC(=O)[C@H](Cc1ccccc1)NC(=O)[C@H](CC(C)C)NC(=O)[C@H](CCCCN)CC(=O)NO/N=C1/CCC2(C)C(CCC3(C)C2CC=C2C4CC(C)(C)CC[C@]4(C(=O)O[C@]4([C@@H]5OC(C)[C@H](O[C@@H]6OC[C@@H](O)C(O)C6O)C(O)C5O)OC(CO)[C@H](NC(=O)CCCCCNC(=O)COCCOCCOCC(=O)NCC(=O)N[C@H](C(=O)N[C@H](C(=O)O[C@@H](CO)C(=O)N[C@@H](C)C(=O)N5CCC[C@H]5C(=O)N[C@@H](CC(=O)O)C(=O)N[C@H](C(=O)N[C@@H](CCCNC(=N)N)C(=O)N5CCC[C@H]5C(=O)N[C@@H](C)C(=O)N5CCC[C@H]5C(=O)NCC(=O)N[C@@H](CO)C(=O)N[C@H](C(=O)N[C@@H](C)C(N)=O)C(C)O)C(C)O)C(C)O)C(C)C)C(O)C4O)C(O)CC23C)C1(C)C)C(C)C)C(=O)N[C@H](C(=O)N[C@@H](Cc1ccc(O)cc1)C(=O)N[C@@H](CCCCN)C(=O)N[C@@H](CC(=O)O)C(=O)N[C@H](C(=O)O)[C@@H](C)O)[C@@H](C)O (stereo partly drawn) [compound 10, PV-Echinocystic Acid Saponin-MUC1 Tri-Conjugate] | high levels | – | – | – |
| C[C@@H]1O[C@@H](O[C@H]2[C@H](OC(=O)[C@]34CCC(C)(C)C[C@H]3C3=CC[C@@H]5[C@@]6(C)CC/C(=N/O)C(C)(C)[C@@H]6CC[C@@]5(C)[C@]3(C)C[C@H]4O)O[C@H](CO)[C@H](NC(=O)CCCCCCCCCCC(=O)O)[C@@H]2O)[C@H](O)[C@H](O)[C@H]1O[C@@H]1OC[C@@H](O)[C@H](O)[C@H]1O [compound 2] | – | significantly higher than that of the negative control group | increased (significantly in the latter case) | – |
| C[C@@H]1O[C@@H](O[C@H]2[C@H](OC(=O)[C@]34CCC(C)(C)C[C@H]3C3=CC[C@@H]5[C@@]6(C)CCC(=O)C(C)(C)[C@@H]6CC[C@@]5(C)[C@]3(C)C[C@H]4O)O[C@H](CO)[C@H](NC(=O)CCCCCCCCCCC(=O)O)[C@@H]2O)[C@H](O)[C@H](O)[C@H]1O[C@@H]1OC[C@@H](O)[C@H](O)[C@H]1O [compound 1] | – | significantly higher than that of the negative control group | increased | – |
| CC[C@H](C)C(NC(=O)[C@H](CCCCN)NC(=O)[C@H](Cc1c[nH]c2ccccc12)NC(=O)[C@@H](NC(=O)[C@H](C)NC(=O)[C@H](Cc1ccccc1)NC(=O)[C@H](CC(C)C)NC(=O)[C@H](CCCCN)CC(=O)NO/N=C1/CCC2(C)C(CCC3(C)C2CC=C2C4CC(C)(C)CC[C@]4(C(=O)O[C@]4([C@@H]5OC(C)[C@H](O[C@@H]6OC[C@@H](O)C(O)C6O)C(O)C5O)OC(CO)[C@H](NC(=O)CCCCCNC(=O)COCCOCCOCC(=O)NCC(=O)N[C@H](C(=O)N[C@H](C(=O)O[C@@H](CO)C(=O)N[C@@H](C)C(=O)N5CCC[C@H]5C(=O)N[C@@H](CC(=O)O)C(=O)N[C@H](C(=O)N[C@@H](CCCNC(=N)N)C(=O)N5CCC[C@H]5C(=O)N[C@@H](C)C(=O)N5CCC[C@H]5C(=O)NCC(=O)N[C@@H](CO)C(=O)N[C@H](C(=O)N[C@@H](C)C(N)=O)C(C)O)C(C)O[C@H]5OC(CO)[C@H](O)C(O)C5NC(C)=O)C(C)O)C(C)C)C(O)C4O)C(O)CC23C)C1(C)C)C(C)C)C(=O)N[C@H](C(=O)N[C@@H](Cc1ccc(O)cc1)C(=O)N[C@@H](CCCCN)C(=O)N[C@@H](CC(=O)O)C(=O)N[C@H](C(=O)O)[C@@H](C)O)[C@@H](C)O (stereo partly drawn) [compound 11, PV-Echinocystic Acid Saponin-TnMUC1 Tri-Conjugate] | – | – | – | high levels |
